Experiments:
[1] = test system: off-target kinases; assay: KinaseProfiler off-target kinase profiling, full kinase panel; assay type: biochemical; settings: 10 μM; panel of about 230 kinases
Method: (§1) A representative compound (Example 15) of the invention was tested for off-target kinase activity at a concentration of 10 μM by Millipore, Inc. in their KinaseProfiler™ service against all the kinases available in their full kinase panel. The compound was run in duplicate at a concentration of ATP near the Km for each individual kinase according to Millipore's specifications. The results are shown in Table B. Data are reported as percent of control (POC) and are the average of the two replicates.
Such a drug profile would represent a safer approach to treating pain, inflammation, cancer and certain skin diseases than has been previously reported.

[2] = target: T1, CAMK1d (Homo sapiens, UniProt Q8IU85); assay: KinaseProfiler; assay type: biochemical; settings: 10 μM, ATP near Km
T1 construct: purchased Millipore (KinaseProfiler service)
Method: as §1

[3] = target: T2, CHK2 (Homo sapiens, UniProt O96017); assay: KinaseProfiler; assay type: biochemical; settings: 10 μM, ATP near Km
T2 construct: purchased Millipore, Inc. (KinaseProfiler service)
T2 sequence (O96017 whole entry): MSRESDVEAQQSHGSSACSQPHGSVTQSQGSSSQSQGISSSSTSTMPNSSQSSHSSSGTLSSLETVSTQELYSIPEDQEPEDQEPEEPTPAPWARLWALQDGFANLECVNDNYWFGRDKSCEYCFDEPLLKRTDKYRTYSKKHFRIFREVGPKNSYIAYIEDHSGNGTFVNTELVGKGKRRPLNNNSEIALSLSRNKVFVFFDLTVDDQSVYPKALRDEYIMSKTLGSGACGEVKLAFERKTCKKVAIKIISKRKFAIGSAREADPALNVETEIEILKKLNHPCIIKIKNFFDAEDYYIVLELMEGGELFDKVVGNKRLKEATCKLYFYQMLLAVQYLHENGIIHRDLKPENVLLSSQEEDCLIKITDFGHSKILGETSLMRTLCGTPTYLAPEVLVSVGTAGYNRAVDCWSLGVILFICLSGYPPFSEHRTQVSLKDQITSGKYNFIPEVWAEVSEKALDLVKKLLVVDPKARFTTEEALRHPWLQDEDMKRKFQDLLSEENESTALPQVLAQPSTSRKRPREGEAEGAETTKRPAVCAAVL
Method: as §1

[4] = target: T3, CK2alpha2 (Homo sapiens, UniProt P19784); assay: KinaseProfiler; assay type: biochemical; settings: 10 μM, ATP near Km
T3 construct: purchased Millipore, Inc. (KinaseProfiler service)
Method: as §1

[5] = target: T4, CLK3 (Homo sapiens, UniProt P49761); assay: KinaseProfiler; assay type: biochemical; settings: 10 μM, ATP near Km
T4 construct: purchased Millipore, Inc. (KinaseProfiler service)
T4 sequence (P49761 whole entry): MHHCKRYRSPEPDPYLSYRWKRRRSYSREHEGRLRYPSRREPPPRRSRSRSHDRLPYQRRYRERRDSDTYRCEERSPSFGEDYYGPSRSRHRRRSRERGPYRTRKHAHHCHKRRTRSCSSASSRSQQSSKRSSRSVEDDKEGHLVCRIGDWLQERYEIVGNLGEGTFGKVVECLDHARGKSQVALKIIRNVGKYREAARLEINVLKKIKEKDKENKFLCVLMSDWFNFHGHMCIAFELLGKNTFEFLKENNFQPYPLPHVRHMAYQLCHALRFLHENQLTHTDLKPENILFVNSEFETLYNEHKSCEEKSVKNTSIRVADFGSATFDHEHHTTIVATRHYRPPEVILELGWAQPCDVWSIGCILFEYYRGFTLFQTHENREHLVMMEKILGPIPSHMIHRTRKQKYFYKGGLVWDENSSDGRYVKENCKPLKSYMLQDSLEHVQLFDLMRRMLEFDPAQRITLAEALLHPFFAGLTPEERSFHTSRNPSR
Method: as §1

[6] = target: T5, HIPK3 (Homo sapiens, UniProt Q9H422); assay: KinaseProfiler; assay type: biochemical; settings: 10 μM, ATP near Km
T5 construct: purchased Millipore, Inc. (KinaseProfiler service)
Method: as §1

[7] = target: T6, IGF-1R Activated (Homo sapiens, UniProt P08069); assay: KinaseProfiler; assay type: biochemical; settings: 10 μM, ATP near Km
T6 construct: purchased Millipore, Inc. (KinaseProfiler service)
Method: as §1

[8] = target: T7, IRAK1 (Homo sapiens, UniProt P51617); assay: KinaseProfiler; assay type: biochemical; settings: 10 μM, ATP near Km
T7 construct: purchased Millipore, Inc. (KinaseProfiler service)
Method: as §1

[9] = target: T8, JNK2alpha2 (Homo sapiens, UniProt P45984); assay: KinaseProfiler; assay type: biochemical; settings: 10 μM, ATP near Km
T8 construct: purchased Millipore, Inc. (KinaseProfiler service)
Method: as §1

[10] = target: T9, LIMK1 (Homo sapiens, UniProt P53667); assay: KinaseProfiler; assay type: biochemical; settings: 10 μM, ATP near Km
T9 construct: purchased Millipore, Inc. (KinaseProfiler service)
Method: as §1

[11] = target: T10, MAP4K2 (Homo sapiens, UniProt Q12851); assay: KinaseProfiler; assay type: biochemical; settings: 10 μM, ATP near Km
T10 construct: purchased Millipore, Inc. (KinaseProfiler service)
Method: as §1

[12] = target: T11, MAPKAP-K2 (Homo sapiens, UniProt P49137); assay: KinaseProfiler; assay type: biochemical; settings: 10 μM, ATP near Km
T11 construct: purchased Millipore, Inc. (KinaseProfiler service)
Method: as §1

[13] = target: T12, MKK7beta (Homo sapiens, UniProt O14733); assay: KinaseProfiler; assay type: biochemical; settings: 10 μM, ATP near Km
T12 construct: purchased Millipore, Inc. (KinaseProfiler service)
Method: as §1

[14] = target: T13, MYLK (Homo sapiens, UniProt Q15746); assay: KinaseProfiler; assay type: biochemical; settings: 10 μM, ATP near Km
T13 construct: purchased Millipore, Inc. (KinaseProfiler service)
Method: as §1

[15] = target: T14, Met (Homo sapiens, UniProt P08581); assay: KinaseProfiler; assay type: biochemical; settings: 10 μM, ATP near Km
T14 construct: purchased Millipore, Inc. (KinaseProfiler service)
Method: as §1

[16] = target: T15, NEK6 (Homo sapiens, UniProt Q9HC98); assay: KinaseProfiler; assay type: biochemical; settings: 10 μM, ATP near Km
T15 construct: purchased Millipore, Inc. (KinaseProfiler service)
Method: as §1

[17] = target: T16, PASK (Homo sapiens, UniProt Q96RG2); assay: KinaseProfiler; assay type: biochemical; settings: 10 μM, ATP near Km
T16 construct: purchased Millipore, Inc. (KinaseProfiler service)
Method: as §1

[18] = target: T17, PRKG1alpha (Homo sapiens, UniProt Q13976); assay: KinaseProfiler; assay type: biochemical; settings: 10 μM, ATP near Km
T17 construct: purchased Millipore, Inc. (KinaseProfiler service)
Method: as §1

[19] = target: T18, Pim-2 (Homo sapiens, UniProt Q9P1W9); assay: KinaseProfiler; assay type: biochemical; settings: 10 μM, ATP near Km
T18 construct: purchased Millipore, Inc. (KinaseProfiler service)
T18 sequence (Q9P1W9 whole entry): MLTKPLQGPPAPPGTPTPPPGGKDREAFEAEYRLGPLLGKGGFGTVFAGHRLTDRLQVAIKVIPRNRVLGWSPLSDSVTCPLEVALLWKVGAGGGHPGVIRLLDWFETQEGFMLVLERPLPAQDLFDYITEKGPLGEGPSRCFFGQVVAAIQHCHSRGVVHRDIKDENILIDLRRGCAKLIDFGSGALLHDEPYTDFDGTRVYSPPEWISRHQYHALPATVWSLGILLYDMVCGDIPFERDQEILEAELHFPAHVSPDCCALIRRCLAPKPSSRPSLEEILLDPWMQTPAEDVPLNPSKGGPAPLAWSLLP
Method: as §1

[20] = target: T19, Ret (Homo sapiens, UniProt P07949); assay: KinaseProfiler; assay type: biochemical; settings: 10 μM, ATP near Km
T19 construct: purchased Millipore, Inc. (KinaseProfiler service)
Method: as §1

[21] = target: T20, SIK (Homo sapiens, UniProt P57059); assay: KinaseProfiler; assay type: biochemical; settings: 10 μM, ATP near Km
T20 construct: purchased Millipore, Inc. (KinaseProfiler service)
Method: as §1

[22] = target: T21, SRPK1 (Homo sapiens, UniProt Q96SB4); assay: KinaseProfiler; assay type: biochemical; settings: 10 μM, ATP near Km
T21 construct: purchased Millipore, Inc. (KinaseProfiler service)
Method: as §1

[23] = target: T22, STK33 (Homo sapiens, UniProt Q9BYT3); assay: KinaseProfiler; assay type: biochemical; settings: 10 μM, ATP near Km
T22 construct: purchased Millipore, Inc. (KinaseProfiler service)
Method: as §1

[24] = target: T23, TAO2 (Homo sapiens, UniProt Q9UL54); assay: KinaseProfiler; assay type: biochemical; settings: 10 μM, ATP near Km
T23 construct: purchased Millipore, Inc. (KinaseProfiler service)
Method: as §1

[25] = target: T24, TNK2 (Homo sapiens, UniProt Q07912); assay: KinaseProfiler; assay type: biochemical; settings: 10 μM, ATP near Km
T24 construct: purchased Millipore, Inc. (KinaseProfiler service)
Method: as §1

[26] = target: T25, Tie2 (Homo sapiens, UniProt Q02763); assay: KinaseProfiler; assay type: biochemical; settings: 10 μM, ATP near Km
T25 construct: purchased Millipore, Inc. (KinaseProfiler service)
T25 sequence (Q02763 23-1124): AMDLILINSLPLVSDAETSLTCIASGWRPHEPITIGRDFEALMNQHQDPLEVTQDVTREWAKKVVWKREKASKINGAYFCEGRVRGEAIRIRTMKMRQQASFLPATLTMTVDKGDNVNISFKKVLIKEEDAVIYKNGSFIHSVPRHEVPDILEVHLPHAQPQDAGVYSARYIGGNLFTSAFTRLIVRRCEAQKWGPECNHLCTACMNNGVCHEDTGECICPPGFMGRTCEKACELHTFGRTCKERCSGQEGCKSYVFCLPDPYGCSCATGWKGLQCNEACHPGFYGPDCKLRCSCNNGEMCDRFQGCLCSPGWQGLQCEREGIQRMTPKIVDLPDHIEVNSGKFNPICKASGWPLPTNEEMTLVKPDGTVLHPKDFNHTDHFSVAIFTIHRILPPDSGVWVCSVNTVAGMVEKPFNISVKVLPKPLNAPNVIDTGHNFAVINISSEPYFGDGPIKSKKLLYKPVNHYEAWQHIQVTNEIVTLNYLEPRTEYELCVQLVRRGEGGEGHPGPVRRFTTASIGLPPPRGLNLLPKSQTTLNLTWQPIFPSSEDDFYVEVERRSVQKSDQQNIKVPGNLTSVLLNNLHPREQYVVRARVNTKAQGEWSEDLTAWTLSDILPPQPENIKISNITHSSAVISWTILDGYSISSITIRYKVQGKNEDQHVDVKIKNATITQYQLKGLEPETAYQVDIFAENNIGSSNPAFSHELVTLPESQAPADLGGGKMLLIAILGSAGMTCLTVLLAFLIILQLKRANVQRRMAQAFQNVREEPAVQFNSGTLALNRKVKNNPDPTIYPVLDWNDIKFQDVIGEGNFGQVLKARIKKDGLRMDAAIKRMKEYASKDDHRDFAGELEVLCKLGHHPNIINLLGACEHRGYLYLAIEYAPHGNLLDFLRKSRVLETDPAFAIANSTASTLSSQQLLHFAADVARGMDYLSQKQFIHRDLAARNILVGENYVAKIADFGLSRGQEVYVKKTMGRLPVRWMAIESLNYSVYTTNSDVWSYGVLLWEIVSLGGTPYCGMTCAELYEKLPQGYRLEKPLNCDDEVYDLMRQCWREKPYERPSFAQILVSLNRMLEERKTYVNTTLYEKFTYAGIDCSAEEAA
Method: as §1

[27] = target: T26, WNK2 (Homo sapiens, UniProt Q9Y3S1); assay: KinaseProfiler; assay type: biochemical; settings: 10 μM, ATP near Km
T26 construct: purchased Millipore, Inc. (KinaseProfiler service)
T26 sequence (Q9Y3S1 whole entry): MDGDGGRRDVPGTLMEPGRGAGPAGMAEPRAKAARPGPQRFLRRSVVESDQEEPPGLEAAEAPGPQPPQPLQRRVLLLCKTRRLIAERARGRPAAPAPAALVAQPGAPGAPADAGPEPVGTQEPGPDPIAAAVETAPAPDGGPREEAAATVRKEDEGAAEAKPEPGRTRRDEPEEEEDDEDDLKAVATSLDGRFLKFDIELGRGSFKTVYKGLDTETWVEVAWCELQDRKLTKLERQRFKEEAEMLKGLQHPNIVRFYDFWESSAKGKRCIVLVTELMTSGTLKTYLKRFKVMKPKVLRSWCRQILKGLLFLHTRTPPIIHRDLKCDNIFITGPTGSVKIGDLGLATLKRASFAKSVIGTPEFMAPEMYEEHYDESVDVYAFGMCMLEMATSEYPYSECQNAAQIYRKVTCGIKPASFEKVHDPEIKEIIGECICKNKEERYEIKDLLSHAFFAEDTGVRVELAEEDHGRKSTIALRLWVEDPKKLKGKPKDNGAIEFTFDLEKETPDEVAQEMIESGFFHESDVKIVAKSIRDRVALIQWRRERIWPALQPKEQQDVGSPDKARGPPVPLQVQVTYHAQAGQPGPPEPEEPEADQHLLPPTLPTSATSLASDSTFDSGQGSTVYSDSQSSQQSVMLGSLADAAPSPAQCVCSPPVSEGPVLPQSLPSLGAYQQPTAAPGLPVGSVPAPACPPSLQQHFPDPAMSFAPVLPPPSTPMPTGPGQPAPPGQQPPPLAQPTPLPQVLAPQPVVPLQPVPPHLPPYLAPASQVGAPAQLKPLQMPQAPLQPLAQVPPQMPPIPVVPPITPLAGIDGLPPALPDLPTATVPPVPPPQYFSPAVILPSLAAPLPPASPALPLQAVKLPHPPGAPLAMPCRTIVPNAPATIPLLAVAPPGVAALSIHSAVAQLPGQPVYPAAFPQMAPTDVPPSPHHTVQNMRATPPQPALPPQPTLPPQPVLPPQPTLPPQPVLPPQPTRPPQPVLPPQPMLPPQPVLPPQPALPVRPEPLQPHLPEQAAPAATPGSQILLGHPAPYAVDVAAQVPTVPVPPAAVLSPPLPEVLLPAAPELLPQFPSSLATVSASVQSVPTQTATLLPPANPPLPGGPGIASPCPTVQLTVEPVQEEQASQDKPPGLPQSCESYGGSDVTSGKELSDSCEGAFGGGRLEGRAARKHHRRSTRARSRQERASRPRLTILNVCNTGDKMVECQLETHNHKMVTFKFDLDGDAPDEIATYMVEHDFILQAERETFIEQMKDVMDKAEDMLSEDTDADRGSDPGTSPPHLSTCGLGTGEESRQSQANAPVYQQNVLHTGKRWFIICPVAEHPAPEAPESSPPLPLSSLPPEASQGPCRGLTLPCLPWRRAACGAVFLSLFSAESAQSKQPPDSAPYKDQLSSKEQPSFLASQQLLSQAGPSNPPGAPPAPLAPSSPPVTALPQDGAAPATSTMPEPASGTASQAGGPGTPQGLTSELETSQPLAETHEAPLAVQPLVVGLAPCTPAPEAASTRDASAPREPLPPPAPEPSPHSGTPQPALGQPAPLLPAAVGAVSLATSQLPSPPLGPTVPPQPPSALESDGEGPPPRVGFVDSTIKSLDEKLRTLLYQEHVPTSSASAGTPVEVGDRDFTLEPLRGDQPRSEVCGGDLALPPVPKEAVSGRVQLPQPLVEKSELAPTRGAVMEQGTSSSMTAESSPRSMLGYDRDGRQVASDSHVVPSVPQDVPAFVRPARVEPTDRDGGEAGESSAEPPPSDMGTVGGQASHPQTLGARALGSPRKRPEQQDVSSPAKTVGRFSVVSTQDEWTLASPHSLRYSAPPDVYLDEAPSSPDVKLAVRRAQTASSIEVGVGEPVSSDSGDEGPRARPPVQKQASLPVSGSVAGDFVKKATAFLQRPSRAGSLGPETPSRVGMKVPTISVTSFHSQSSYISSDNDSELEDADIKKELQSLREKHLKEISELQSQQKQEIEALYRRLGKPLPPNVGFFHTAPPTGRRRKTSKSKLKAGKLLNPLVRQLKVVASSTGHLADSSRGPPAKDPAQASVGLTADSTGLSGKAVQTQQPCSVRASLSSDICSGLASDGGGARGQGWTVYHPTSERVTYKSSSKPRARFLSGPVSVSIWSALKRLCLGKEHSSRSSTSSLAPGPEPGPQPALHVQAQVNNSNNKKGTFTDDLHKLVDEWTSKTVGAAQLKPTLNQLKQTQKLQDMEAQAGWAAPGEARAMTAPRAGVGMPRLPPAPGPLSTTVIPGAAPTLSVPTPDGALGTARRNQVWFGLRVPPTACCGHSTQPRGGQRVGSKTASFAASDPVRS
Method: as §1

[28] = target: T27, p70S6K (Homo sapiens, UniProt P23443); assay: KinaseProfiler; assay type: biochemical; settings: 10 μM, ATP near Km
T27 construct: purchased Millipore, Inc. (KinaseProfiler service)
Method: as §1

[29] = target: T28, TrkA (Homo sapiens, UniProt P04629); assay: KinaseProfiler; assay type: biochemical; design: purchased Millipore, Inc. (KinaseProfiler service); settings: 10 μM, ATP near Km
Method: as §1

[30] = target: T28, TrkA; assay: TrkA LanthaScreen Eu Kinase Binding Assay; design: 6HIS tagged cytoplasmic domain from Invitrogen, Catalog No. PV3144; purchased Invitrogen PV3144; settings: averaged IC50; TR-FRET binding assay; read-out: TrkA Enzyme IC50
Method: TrkA binding activity was determined in a TrkA LanthaScreen™ Eu Kinase Binding Assay. 5 nM His-tagged recombinant human TrkA (6HIS tagged cytoplasmic domain from Invitrogen, Catalog No. PV3144) was incubated with 4 nM Alexa-Fluor® Tracer 236 (Invitrogen Cat. No. PV5592), 2 nM biotinylated anti-His (Invitrogen Cat. No. PV6090), and 2 nM europium-labeled Streptavidin (Invitrogen Cat. No. PV5899), in buffer (25 mM MOPS, pH 7.5, 5 mM MgCl2, 0.005% Triton X-100). Three fold serial dilutions of compounds of the invention in DMSO were added to a final percentage of 2% DMSO. After 60-minute incubation at 22° C., the reaction was measured using the EnVision mutlimode plate reader (PerkinElmer) via TR-FRET dual wavelength detection at […]. The percent of control was calculated using a ratiometric emission factor. The IC50 values were determined by fitting a four parameter model to the percent of control data.
Table A provides averaged IC50 values for compounds of the invention when tested in the assay of Example A, where A represents an averaged IC50 value<100 nM; B represents an averaged IC50 value from 100 to 1,000 nM; and C represents an averaged IC50 value from 1,000 to 10,000 nM.
Target sequence in this assay (P04629 440-796 limits assumed): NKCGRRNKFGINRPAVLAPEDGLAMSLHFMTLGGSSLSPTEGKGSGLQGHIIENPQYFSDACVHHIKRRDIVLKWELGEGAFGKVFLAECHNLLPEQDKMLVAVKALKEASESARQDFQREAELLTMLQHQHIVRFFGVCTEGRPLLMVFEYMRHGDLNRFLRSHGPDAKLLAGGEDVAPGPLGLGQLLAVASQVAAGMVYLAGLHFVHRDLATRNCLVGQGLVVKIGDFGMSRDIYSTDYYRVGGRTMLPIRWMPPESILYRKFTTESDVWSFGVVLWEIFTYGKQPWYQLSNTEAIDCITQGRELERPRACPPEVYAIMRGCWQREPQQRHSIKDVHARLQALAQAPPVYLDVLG

`COCCCc1cc(Cl)c(Cl)cc1NC(=O)Nc1c(C)c(-c2cnn(C)c2)nn1-c1ccccc1` [Example 15, 1-(4,5-dichloro-2-(3-methoxypropyl)phenyl)-3-(1′,4-dimethyl-1-phenyl-1H,1′H-[3,4′-bipyrazol]-5-yl)urea] was tested. Which “off-target kinase activity / selectivity for TrkA versus other kinases in the panel” value [1] did it give?
Its value is “largely inactive against off-target kinases”.

And the “Avg POC” value [2]?
The value was 103 POC.

And the “Avg POC” value [3]?
Its value is 130 POC.

What about the “Avg POC” value [4] of the same molecule?
Its value is 112.5 POC.

What about the “Avg POC” value [5] of the same molecule?
Its value is 105 POC.

What about the “Avg POC” value [6] of the same molecule?
The value was 101 POC.

And the “Avg POC” value [7]?
The value was 102 POC.

And the “Avg POC” value [8]?
The value was 103 POC.

And the “Avg POC” value [9]?
The value was 92 POC.

And the “Avg POC” value [10]?
The value was 93.5 POC.

And the “Avg POC” value [11]?
Its value is 112.5 POC.

What about the “Avg POC” value [12] of the same molecule?
Its value is 129.5 POC.

And the “Avg POC” value [13]?
Its value is 140 POC.

And the “Avg POC” value [14]?
The value was 111.5 POC.

What about the “Avg POC” value [15] of the same molecule?
Its value is 110.5 POC.

What about the “Avg POC” value [16] of the same molecule?
Its value is 111.5 POC.

And the “Avg POC” value [17]?
The value was 188 POC.

What about the “Avg POC” value [18] of the same molecule?
Its value is 113.5 POC.

And the “Avg POC” value [19]?
Its value is 142.5 POC.

And the “Avg POC” value [20]?
Its value is 91.5 POC.

What about the “Avg POC” value [21] of the same molecule?
Its value is 137 POC.

And the “Avg POC” value [22]?
The value was 112.5 POC.

What about the “Avg POC” value [23] of the same molecule?
Its value is 104.5 POC.

And the “Avg POC” value [24]?
The value was 126 POC.

And the “Avg POC” value [25]?
Its value is 124 POC.

What about the “Avg POC” value [26] of the same molecule?
The value was 160.5 POC.

And the “Avg POC” value [27]?
The value was 122.5 POC.

And the “Avg POC” value [28]?
The value was 130.5 POC.

And the “Avg POC” value [29]?
The value was 0 POC.

What about the IC50 [30] of the same molecule?
The IC50 was < 100 nM.

Reference: patent US9790210B2, “N-(monocyclic aryl),N'-pyrazolyl-urea, thiourea, guanidine and cyanoguanidine compounds as TrkA kinase inhibitors” (Array BioPharma Inc., priority 2012, dated 2017)
